From patent EP1617853B1, “ISOLATION OF THE HEPATOPROTECTIVE AGENT ACTEOSIDE FROM COLERBROKEA OPPOSITIFOLIA” (COUNCIL OF SCIENTIFIC AND INDUSTRIAL RESEARCH, priority 2003, dated 2004)

System: CCl4 induced hepatic injury
Test: Hepatoprotective potential against CCl4 induced hepatic injury (prophylactic)
Assay type: in vivo, Rodents
Conditions: for ALP % protection / Albumin % protection / Bilirubin % protection / GOT % protection / GPT % protection / GSH % protection / LP % protection / TG % protection: value within parenthesis
Source text: The compound has been bioevaluated for hepatoprotective/antihepatotoxic activity by using a comprehensive study design annexed herewith as Annexure-2. The parameters studied during the bioevaluation to establish the bioefficacy and optimum dose were preferred using the kits (Clonital, Italy and Accurex Biomedical Pvt. Ltd Thane). The list of the parameters is given in Annexure-2 appended herewith. The dose response graphs with respect to different parameters in comparison with the standard drug with silymarin and glycyrrhizin are given in Annexure-3 appended herewith.
Hepatoprotective activity (H) was calculated by the following equation : H = [1-(TC-V/VC-V)]x100 [formula]
Where TC, VC, and V are drug + toxin, vehicle + toxin and vehicle treated groups of animals respectively. Table-1: Hepatoprotective potential of Acteoside against CCl4 induced hepatic injury in Rodents Prophylactic).

[1] = 0.625 mg/kg p.o. + CCl4 1 ml/kg p.o., prophylactic, mean ± SE of six animals
[2] = 0.625 mg/kg p.o. + CCl4 1 ml/kg p.o., prophylactic
[3] = 1.25 mg/kg p.o. + CCl4 1 ml/kg p.o., prophylactic, mean ± SE of six animals
[4] = 1.25 mg/kg p.o. + CCl4 1 ml/kg p.o., prophylactic
[5] = 2.5 mg/kg p.o. + CCl4 1 ml/kg p.o., prophylactic, mean ± SE of six animals
[6] = 2.5 mg/kg p.o. + CCl4 1 ml/kg p.o., prophylactic
[7] = 5.0 mg/kg p.o. + CCl4 1 ml/kg p.o., prophylactic, mean ± SE of six animals
[8] = 5.0 mg/kg p.o. + CCl4 1 ml/kg p.o., prophylactic
[9] = Acteoside only (Per-se), 5 mg/kg p.o., no CCl4, mean ± SE of six animals
[10] = 100 mg/kg p.o. + CCl4 1 ml/kg p.o., prophylactic, mean ± SE of six animals
[11] = 100 mg/kg p.o. + CCl4 1 ml/kg p.o., prophylactic, mean ± SE of six animals, unit = µ mole pyruvate/min/L
[12] = 100 mg/kg p.o. + CCl4 1 ml/kg p.o., prophylactic

`C[C@@H]1O[C@@H](O[C@@H]2[C@@H](O)[C@H](OCCc3ccc(O)c(O)c3)O[C@H](CO)[C@H]2OC(=O)/C=C/c2ccc(O)c(O)c2)[C@H](O)[C@H](O)[C@H]1O` [Acteoside, β-(3',4'-dihydroxyphenyl) ethyl -O-α-L-rhamnopyranosyl (1→3)-β-D-(4-O-caffeoyl)-glucopyranoside] was tested, and the “Hepatic parameters GSH (glutathione)” value [1] was 4.66±0.28 µ mole GSH/g liver, the “Hepatic parameters LP (lipid peroxidation)” value (“Hepatic parameters LP” for short) [1] was 61.08±3.39 n mole MDA/g liver and the “Serum parameter ALP” value [1] was 66.80±3.53 µ mole of p-nitrophenol formed /min/L. The “Serum parameter Albumin” value [1] was 3.06±0.07 g %, the “Serum parameter Bilirubin” value [1] was 0.70±0.03 mg % and the “Serum parameter TG” value [1] was 80.15±3.53 mg %. It also gave an ALP % protection [2] of 21.48%, an Albumin % protection [2] of 21.43% and a Bilirubin % protection [2] of 12.24%. It also gave a GOT % protection [2] of 36.64%, a GPT % protection [2] of 39.44% and a GSH % protection [2] of 27.86%. The LP % protection [2] was 43.53%, the TG % protection [2] was 17.63% and the “Hepatic parameters GSH (glutathione)” value [3] was 5.93±0.32 µ mole GSH/g liver. For the same molecule, the “Hepatic parameters LP” value [3] was 52.61±2.25 n mole MDA/g liver, the “Serum parameter ALP” value [3] was 59.10±3.09 µ mole of p-nitrophenol formed /min/L and the “Serum parameter Albumin” value [3] was 3.25±0.14 g %. For the same molecule, the “Serum parameter Bilirubin” value [3] was 0.59±0.03 mg %, the “Serum parameter TG” value [3] was 74.38±3.78 mg % and the ALP % protection [4] was 38.72%. For the same molecule, the Albumin % protection [4] was 35.00%, the Bilirubin % protection [4] was 34.69% and the GOT % protection [4] was 55.43%. For the same molecule, the GPT % protection [4] was 51.01%, the GSH % protection [4] was 52.96% and the LP % protection [4] was 59.38%. The TG % protection [4] was 27.13%, the “Hepatic parameters GSH (glutathione)” value [5] was 6.72±0.28 µ mole GSH/g liver and the “Hepatic parameters LP” value [5] was 45.46±2.79 n mole MDA/g liver. For the same molecule, the “Serum parameter ALP” value [5] was 51.20±1.42 µ mole of p-nitrophenol formed /min/L, the “Serum parameter Albumin” value [5] was 3.55±0.22 g % and the “Serum parameter Bilirubin” value [5] was 0.50±0.03 mg %. The “Serum parameter TG” value [5] was 59.85±1.88 mg %, the ALP % protection [6] was 56.40% and the Albumin % protection [6] was 56.43%. For the same molecule, the Bilirubin % protection [6] was 53.06%, the GOT % protection [6] was 58.92% and the GPT % protection [6] was 59.79%. It also gave a GSH % protection [6] of 68.57%, an LP % protection [6] of 72.76% and a TG % protection [6] of 51.06%. The “Hepatic parameters GSH (glutathione)” value [7] was 7.02±0.46 µ mole GSH/g liver, the “Hepatic parameters LP” value [7] was 44.22±1.66 n mole MDA/g liver and the “Serum parameter ALP” value [7] was 46.37±1.89 µ mole of p-nitrophenol formed /min/L. The “Serum parameter Albumin” value [7] was 3.91±0.12 g %, the “Serum parameter Bilirubin” value [7] was 0.42±0.02 mg % and the “Serum parameter TG” value [7] was 49.31±1.47 mg %. For the same molecule, the ALP % protection [8] was 67.21%, the Albumin % protection [8] was 32.14% and the Bilirubin % protection [8] was 69.38%. The GOT % protection [8] was 70.49%, the GPT % protection [8] was 66.08% and the GSH % protection [8] was 74.50%. For the same molecule, the LP % protection [8] was 75.07%, the TG % protection [8] was 68.42% and the “Hepatic parameters GSH (glutathione)” value [9] was 8.33±0.33 µ mole GSH/g liver. For the same molecule, the “Hepatic parameters LP” value [9] was 30.52±1.38 n mole MDA/g liver, the “Serum parameter ALP” value [9] was 31.87±2.15 µ mole of p-nitrophenol formed /min/L and the “Serum parameter Albumin” value [9] was 4.66±0.18 g %. The “Serum parameter Bilirubin” value [9] was 0.27±0.02 mg %, the “Serum parameter TG” value [9] was 31.10±2.39 mg % and the “Serum parameter GOT” value (Acteoside only (Per-se), 5 mg/kg p.o., no CCl4, mean ± SE of six animals, unit = µ mole pyruvate/min/L) was 94.71±5.29 Units. For the same molecule, the overall percent protection (with reference to all the parameters studied, CCl4, dose of 1.25 mg upto 5 mg/kg) was 40-80%.

In the case of `CC1(C)[C@@H](O[C@H]2O[C@H](C(=O)O)[C@@H](O)[C@H](O)[C@H]2O[C@@H]2O[C@H](C(=O)O)[C@@H](O)[C@H](O)[C@H]2O)CC[C@]2(C)[C@H]3C(=O)C=C4[C@@H]5C[C@@](C)(C(=O)O)CC[C@]5(C)CC[C@@]4(C)[C@]3(C)CC[C@@H]12` [Glycyrrhizin, reference compound], the “Hepatic parameters GSH (glutathione)” value [10] was 5.96 ±0.26 µ mole GSH/g liver, the “Hepatic parameters LP” value [10] was 54.37 ± 4.32 n mole MDA/g liver and the “Serum parameter ALP” value [10] was 55.63 ± 3.52 µ mole of p-nitrophenol formed /min/L. For the same molecule, the “Serum parameter Albumin” value [10] was 3.30 ± 0.12 g %, the “Serum parameter Bilirubin” value [10] was 0.55 ± 0.04 mg % and the “Serum parameter TG” value [10] was 65.31 ± 3.69 mg %. The “Serum parameter GOT” value [11] was 494.27 ± 36.28 Units, the “Serum parameter GPT” value [11] was 746.87 ± 49.77 Units and the ALP % protection [12] was 46.48%. It also gave an Albumin % protection [12] of 38.57%, a Bilirubin % protection [12] of 42.85% and a GOT % protection [12] of 56.44%. It also gave a GPT % protection [12] of 53.87%, a GSH % protection [12] of 53.55% and an LP % protection [12] of 56.08%. For the same molecule, the TG % protection [12] was 42.07%.
